From patent publication US20100069421A1, “COMPOSITIONS AND METHODS FOR THE TREATMENT OF RADIATION PROCTOSIGMOITIS” (priority 2006, published 2010)

Tested on: patient experiencing radiation induced enteritis
Assay: Administration of rifaximin to a patient experiencing radiation induced enteritis
Type: in vivo, human
Conditions: no data shown
Source text: The recognition of bacteria as primarily causative of the symptomatology seen in cancer patients represents a paradigm shift in that bacterial colonization, overgrowth, and/or invasion are a potentially curable or controllable source of a patient's discomfort. Furthermore, this represents a paradigm shift in that prior measures commonly used in the amelioration of such problems were supportive in nature, addressing the symptoms of these conditions and not the root cause itself. This permits greater targeting of the symptoms' cause and results in improved efficacy of symptom amelioration, while at the same time causing fewer adverse effects, as would be commonly seen with supportive measures such as traditional anti-diarrheals. […] Furthermore, it enables the physician to treat the cause of the symptoms in such a way that suboptimally effective supportive measures can not. This is seen in terms of greater targeting of therapy, fewer drug interactions, and improved tolerance to therapy. Particular benefit is seen with this therapy because it may prevent or ameliorate symptoms that would otherwise necessitate a break in treatment to allow the patient to recover from their symptoms. […]

## CO[C@H]1/C=C/O[C@@]2(C)Oc3c(C)c(O)c4c(O)c(c5c(nc6cc(C)ccn65)c4c3C2=O)NC(=O)/C(C)=C\C=C\[C@H](C)[C@H](O)[C@@H](C)[C@@H](O)[C@@H](C)[C@H](OC(C)=O)[C@@H]1C [Rifaximin]
  symptoms of radiation induced enteritis: reduces symptoms of the condition
